Test results: patent US6518243B1, “Desleucyl glycopeptide antibiotics and methods of making same” (Trustees of Princeton University, priority 1999, dated 2003)

Columns and labels:
[1] = tested on: E. faecium ATCC 49624; experiment: MIC determination in BHI media, OD600; format: cell-based; conditions: BHI + 0.1% casamino acids, 18 hours at 37° C., ≧90% OD600 inhibition
Protocol: (§1) Logarithmically growing cells were diluted to approximately 5×10^5 CFU/ml and subjected to test compounds solubilized and serially diluted in DMSO. […] After 18 hours at 37° C., the OD600 was determined by reading the ninety-six well microtiter plates on a microplate reader. For a given concentration, an MIC determination was made if: […]

[2] = tested on: S aureus ATCC 29213; experiment: MIC determination in BHI media, OD600; format: cell-based; conditions: BHI + 0.1% casamino acids, 18 hours at 37° C., ≧90% OD600 inhibition
Protocol: as §1

[3] = tested on: S. Aureus ATCC 33591; experiment: MIC determination in BHI media, OD600; format: cell-based; conditions: BHI + 0.1% casamino acids, 18 hours at 37° C., ≧90% OD600 inhibition
Protocol: as §1

[4] = tested on: E. faceium (ATCC 49624); experiment: Zone of inhibition screen, 96 well agar array format;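 also: score 3 means fourfold and score 4 sixteenfold the reference zone size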; format: cell-based, E. faecium
Protocol: The antibacterial activity of each of the compounds against the bacterial strains E. faceium (ATCC 49624), S. epidermidis (ATCC 12228), S. aureus (ATCC 29213), E. faecalis (CL 4877) and E. faecalis (ATCC 292121) was tested. Each of the compounds was screened in a 96 will agar array format.

[5] = tested on: E. faecalis (CL 4877); experiment: as above; format: cell-based; set-up: scale not given here
In short: (§2)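 Read-out is antibacterial activity on agar laid out as a 96-well array; every compound went through all strains of the panel.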

[6] = tested on: S. aureus (ATCC 29213); experiment: as above; format: cell-based; set-up: scale not given here
In short: as §2

[7] = tested on: S. epidermidis (ATCC 12228); experiment: as above; format: cell-based; set-up: scale not given here
In short: as §2

[8] = zone of inhibition relative to 1 mg/ml stock solution of p-chlorobiphenylvancomycin
[9] = zone of inhibition relative to 1 mg/ml p-chlorobiphenylvancomycin

Structure (SMILES): CNC(COCc1ccccc1)C(=O)NC1C(=O)NC(CC(N)=O)C(=O)NC2C(=O)NC3C(=O)NC(C(=O)NC(C(=O)O)c4cc(O)cc(O)c4-c4cc3ccc4O)C(O)c3ccc(c(Cl)c3)Oc3cc2cc(c3OC2OC(CO)C(O)C(O)C2OC2CC(C)(NCc3ccc(-c4ccc(Cl)cc4)cc3)C(O)C(C)O2)Oc2ccc(cc2Cl)C1O (centres unmarked) [Compound 331]
- MIC E. faecium ATCC 49624 [1]: 0.39 µg/mL
- MIC S. aureus ATCC 29213 [2]: 0.78 µg/mL
- MIC S. aureus ATCC 33591 [3]: 0.78 µg/mL

Structure (SMILES): CC1OC(OC2C(Oc3c4cc5cc3Oc3ccc(cc3Cl)C(O)C3NC(=O)C(NC(=O)C5NC(=O)C(CC(N)=O)NC(=O)C(NC(=O)CCN)C(O)c5ccc(c(Cl)c5)O4)c4ccc(O)c(c4)-c4c(O)cc(O)cc4C(C(=O)O)NC3=O)OC(CO)C(O)C2O)CC(C)(NCc2ccc(-c3ccc(Cl)cc3)cc2)C1O (centres unmarked) [Compound 47]
- zone score, E. faecium ATCC 49624 [4, 8]: 2
- zone score, E. faecalis CL 4877 [5, 8]: 2

Structure (SMILES): CC1OC(OC2C(Oc3c4cc5cc3Oc3ccc(cc3Cl)C(O)C3NC(=O)C(NC(=O)C5NC(=O)C(CC(N)=O)NC(=O)C(NC(=O)C(N)CCCNC(=N)N)C(O)c5ccc(c(Cl)c5)O4)c4ccc(O)c(c4)-c4c(O)cc(O)cc4C(C(=O)O)NC3=O)OC(CO)C(O)C2O)CC(C)(NCc2ccc(-c3ccc(Cl)cc3)cc2)C1O (centres unmarked) [Compound 217]
- zone score, E. faecium ATCC 49624 [4, 9]: 2
- zone score, E. faecalis CL 4877 [5, 9]: 2

Structure (SMILES): C[C@H]1O[C@H](O[C@H]2[C@H](Oc3c4cc5cc3Oc3ccc(cc3Cl)[C@@H](O)[C@@H](NC(=O)[C@@H](N)Cc3c[nH]c6ccccc36)C(=O)N[C@@H](CC(N)=O)C(=O)N[C@H]5C(=O)N[C@H]3C(=O)N[C@H](C(=O)N[C@@H](C(=O)O)c5cc(O)cc(O)c5-c5cc3ccc5O)[C@H](O)c3ccc(c(Cl)c3)O4)O[C@H](CO)[C@@H](O)[C@@H]2O)C[C@@](C)(NCc2ccc(-c3ccc(Cl)cc3)cc2)[C@H]1O [Compound 12]
- zone score, S. aureus ATCC 29213 [6, 8]: 2
- zone score, S. epidermidis ATCC 12228 [7, 8]: 2
- MIC E. faecium ATCC 49624 [1]: 0.39 µg/mL
- MIC S. aureus ATCC 29213 [2]: 0.78 µg/mL
- MIC S. aureus ATCC 33591 [3]: 0.78 µg/mL

Structure (SMILES): CC1OC(OC2C(Oc3c4cc5cc3Oc3ccc(cc3Cl)C(O)C3NC(=O)C(NC(=O)C5NC(=O)C(CC(N)=O)NC(=O)C(NC(=O)CNC(=O)CNC(=O)CN)C(O)c5ccc(c(Cl)c5)O4)c4ccc(O)c(c4)-c4c(O)cc(O)cc4C(C(=O)O)NC3=O)OC(CO)C(O)C2O)CC(C)(NCc2ccc(-c3ccc(Cl)cc3)cc2)C1O (centres unmarked) [Compound 67]
- zone score, S. aureus ATCC 29213 [6, 8]: 2
- zone score, S. epidermidis ATCC 12228 [7, 8]: 2
- MIC E. faecium ATCC 49624 [1]: 0.78 µg/mL
- MIC S. aureus ATCC 29213 [2]: 0.78 µg/mL
- MIC S. aureus ATCC 33591 [3]: 0.78 µg/mL

Structure (SMILES): CC(O)C(N)C(=O)NC1C(=O)NC(CC(N)=O)C(=O)NC2C(=O)NC3C(=O)NC(C(=O)NC(C(=O)O)c4cc(O)cc(O)c4-c4cc3ccc4O)C(O)c3ccc(c(Cl)c3)Oc3cc2cc(c3OC2OC(CO)C(O)C(O)C2OC2CC(C)(NCc3ccc(-c4ccc(Cl)cc4)cc3)C(O)C(C)O2)Oc2ccc(cc2Cl)C1O (centres unmarked) [Compound 43]
- zone score, E. faecium ATCC 49624 [4, 8]: 2
- zone score, E. faecalis CL 4877 [5, 8]: 2

Structure (SMILES): CC1OC(OC2C(Oc3c4cc5cc3Oc3ccc(cc3Cl)C(O)C3NC(=O)C(NC(=O)C5NC(=O)C(CC(N)=O)NC(=O)C(NC(=O)CC(O)C[N+](C)(C)C)C(O)c5ccc(c(Cl)c5)O4)c4ccc(O)c(c4)-c4c(O)cc(O)cc4C(C(=O)O)NC3=O)OC(CO)C(O)C2O)CC(C)(NCc2ccc(-c3ccc(Cl)cc3)cc2)C1O (centres unmarked) [Compound 149]
- zone score, E. faecium ATCC 49624 [4, 8]: 2
- zone score, E. faecalis CL 4877 [5, 8]: 2

Structure (SMILES): CC1OC(OC2C(Oc3c4cc5cc3Oc3ccc(cc3Cl)C(O)C3NC(=O)C(NC(=O)C5NC(=O)C(CC(N)=O)NC(=O)C(NC(=O)CCS(=O)(=O)c5ccccc5)C(O)c5ccc(c(Cl)c5)O4)c4ccc(O)c(c4)-c4c(O)cc(O)cc4C(C(=O)O)NC3=O)OC(CO)C(O)C2O)CC(C)(NCc2ccc(-c3ccc(Cl)cc3)cc2)C1O (centres unmarked) [Compound 246]
- zone score, E. faecium ATCC 49624 [4, 9]: 2

Structure (SMILES): COCCOCC(=O)NC1C(=O)NC(CC(N)=O)C(=O)NC2C(=O)NC3C(=O)NC(C(=O)NC(C(=O)O)c4cc(O)cc(O)c4-c4cc3ccc4O)C(O)c3ccc(c(Cl)c3)Oc3cc2cc(c3OC2OC(CO)C(O)C(O)C2OC2CC(C)(NCc3ccc(-c4ccc(Cl)cc4)cc3)C(O)C(C)O2)Oc2ccc(cc2Cl)C1O (centres unmarked) [Compound 100]
- zone score, S. aureus ATCC 29213 [6, 8]: 2
- MIC E. faecium ATCC 49624 [1]: 0.78 µg/mL
- MIC S. aureus ATCC 29213 [2]: 0.25 µg/mL
- MIC S. aureus ATCC 33591 [3]: 0.78 µg/mL

Structure (SMILES): CSCC(N)C(=O)NC1C(=O)NC(CC(N)=O)C(=O)NC2C(=O)NC3C(=O)NC(C(=O)NC(C(=O)O)c4cc(O)cc(O)c4-c4cc3ccc4O)C(O)c3ccc(c(Cl)c3)Oc3cc2cc(c3OC2OC(CO)C(O)C(O)C2OC2CC(C)(NCc3ccc(-c4ccc(Cl)cc4)cc3)C(O)C(C)O2)Oc2ccc(cc2Cl)C1O (centres unmarked) [Compound 50]
- zone score, E. faecium ATCC 49624 [4, 8]: 2
- zone score, E. faecalis CL 4877 [5, 8]: 2

Structure (SMILES): CC1OC(OC2C(Oc3c4cc5cc3Oc3ccc(cc3Cl)C(O)C3NC(=O)C(NC(=O)C5NC(=O)C(CC(N)=O)NC(=O)C(NC(=O)C(N)CCCC[N+](C)(C)C)C(O)c5ccc(c(Cl)c5)O4)c4ccc(O)c(c4)-c4c(O)cc(O)cc4C(C(=O)O)NC3=O)OC(CO)C(O)C2O)CC(C)(NCc2ccc(-c3ccc(Cl)cc3)cc2)C1O.[Cl-] (centres unmarked) [Compound 80]
- zone score, E. faecium ATCC 49624 [4, 8]: 2
- zone score, S. aureus ATCC 29213 [6, 8]: 2

Structure (SMILES): CC(N)C(=O)NC1C(=O)NC(CC(N)=O)C(=O)NC2C(=O)NC3C(=O)NC(C(=O)NC(C(=O)O)c4cc(O)cc(O)c4-c4cc3ccc4O)C(O)c3ccc(c(Cl)c3)Oc3cc2cc(c3OC2OC(CO)C(O)C(O)C2OC2CC(C)(NCc3ccc(-c4ccc(Cl)cc4)cc3)C(O)C(C)O2)Oc2ccc(cc2Cl)C1O (centres unmarked) [Compound 220]
- zone score, E. faecium ATCC 49624 [4, 9]: 2

Structure (SMILES): CC1OC(OC2C(Oc3c4cc5cc3Oc3ccc(cc3Cl)C(O)C3NC(=O)C(NC(=O)C5NC(=O)C(CC(N)=O)NC(=O)C(NC(=O)C(N)Cc5cccs5)C(O)c5ccc(c(Cl)c5)O4)c4ccc(O)c(c4)-c4c(O)cc(O)cc4C(C(=O)O)NC3=O)OC(CO)C(O)C2O)CC(C)(NCc2ccc(-c3ccc(Cl)cc3)cc2)C1O (centres unmarked) [Compound 10]
- zone score, E. faecium ATCC 49624 [4, 8]: 2
- zone score, S. aureus ATCC 29213 [6, 8]: 2

Structure (SMILES): C[C@H]1O[C@H](O[C@H]2[C@H](Oc3c4cc5cc3Oc3ccc(cc3Cl)[C@@H](O)[C@@H](NC(=O)[C@@H](N)CCCNC(N)=O)C(=O)N[C@@H](CC(N)=O)C(=O)N[C@H]5C(=O)N[C@H]3C(=O)N[C@H](C(=O)N[C@@H](C(=O)O)c5cc(O)cc(O)c5-c5cc3ccc5O)[C@H](O)c3ccc(c(Cl)c3)O4)O[C@H](CO)[C@@H](O)[C@@H]2O)C[C@@](C)(NCc2ccc(-c3ccc(Cl)cc3)cc2)[C@H]1O [Compound 5]
- zone score, E. faecium ATCC 49624 [4, 8]: 2
- zone score, E. faecalis CL 4877 [5, 8]: 2

Structure (SMILES): CC1OC(OC2C(Oc3c4cc5cc3Oc3ccc(cc3Cl)C(O)C3NC(=O)C(NC(=O)C5NC(=O)C(CC(N)=O)NC(=O)C(NC(=O)C(N)Cc5c[nH]cn5)C(O)c5ccc(c(Cl)c5)O4)c4ccc(O)c(c4)-c4c(O)cc(O)cc4C(C(=O)O)NC3=O)OC(CO)C(O)C2O)CC(C)(NCc2ccc(-c3ccc(Cl)cc3)cc2)C1O (centres unmarked) [Compound 555]
- MIC E. faecium ATCC 49624 [1]: 0.39 µg/mL
- MIC S. aureus ATCC 29213 [2]: 0.78 µg/mL
- MIC S. aureus ATCC 33591 [3]: 0.39 µg/mL

Structure (SMILES): CC1OC(OC2C(Oc3c4cc5cc3Oc3ccc(cc3Cl)C(O)C3NC(=O)C(NC(=O)C5NC(=O)C(CC(N)=O)NC(=O)C(NC(=O)C5CNCCO5)C(O)c5ccc(c(Cl)c5)O4)c4ccc(O)c(c4)-c4c(O)cc(O)cc4C(C(=O)O)NC3=O)OC(CO)C(O)C2O)CC(C)(NCc2ccc(-c3ccc(Cl)cc3)cc2)C1O (mixture of isomers) [Compound 23]
- zone score, E. faecalis CL 4877 [5, 8]: 2
- zone score, S. aureus ATCC 29213 [6, 8]: 2
- zone score, S. epidermidis ATCC 12228 [7, 8]: 2

Structure (SMILES): CC1OC(OC2C(Oc3c4cc5cc3Oc3ccc(cc3Cl)C(O)C3NC(=O)C(NC(=O)C5NC(=O)C(CC(N)=O)NC(=O)C(NC(=O)C(F)F)C(O)c5ccc(c(Cl)c5)O4)c4ccc(O)c(c4)-c4c(O)cc(O)cc4C(C(=O)O)NC3=O)OC(CO)C(O)C2O)CC(C)(NCc2ccc(-c3ccc(Cl)cc3)cc2)C1O (centres unmarked) [Compound 285]
- zone score, E. faecalis CL 4877 [5, 9]: 2
- zone score, S. aureus ATCC 29213 [6, 9]: 2
- zone score, S. epidermidis ATCC 12228 [7, 9]: 2

Structure (SMILES): CC(=O)OC(CC(=O)NC1C(=O)NC(CC(N)=O)C(=O)NC2C(=O)NC3C(=O)NC(C(=O)NC(C(=O)O)c4cc(O)cc(O)c4-c4cc3ccc4O)C(O)c3ccc(c(Cl)c3)Oc3cc2cc(c3OC2OC(CO)C(O)C(O)C2OC2CC(C)(NCc3ccc(-c4ccc(Cl)cc4)cc3)C(O)C(C)O2)Oc2ccc(cc2Cl)C1O)C[N+](C)(C)C (centres unmarked) [Compound 119]
- zone score, E. faecalis CL 4877 [5, 8]: 2
- zone score, S. aureus ATCC 29213 [6, 8]: 2
- zone score, S. epidermidis ATCC 12228 [7, 8]: 2
